Measured values: PubChem BioAssay (NCI)
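Cells were grown in 96-well plates and exposed to each compound for 48 hours at five concentrations; endpoints were interpolated linearly between bracketing concentrations, or set to the highest concentration if not reached. GI50 marks 50% less growth. TGI: concentration producing complete growth inhibition.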

Assays:
Test in all cases: inhibition of tumour cell growth, NCI panel, 48 h
LOX IMVI melanoma = test system: LOX IMVI melanoma
MDA-MB-435 = test system: MDA-MB-435
OVCAR-3 ovarian = test system: OVCAR-3 ovarian
NCI-H460 lung = test system: NCI-H460 lung
NCI-H226 lung = test system: NCI-H226 lung
KM12 colon = test system: KM12 colon
T-47D breast = test system: T-47D breast
BT-549 breast = test system: BT-549 breast
UACC-257 melanoma = test system: UACC-257 melanoma
TK-10 renal = test system: TK-10 renal
HS 578T breast = test system: HS 578T breast
UACC-62 melanoma = test system: UACC-62 melanoma
SR leukemia = test system: SR leukemia
CCRF-CEM leukemia = test system: CCRF-CEM leukemia
DU-145 prostate = test system: DU-145 prostate
OVCAR-4 ovarian = test system: OVCAR-4 ovarian
HT29 colon = test system: HT29 colon
UO-31 renal = test system: UO-31 renal
786-0 renal = test system: 786-0 renal
HL-60(TB) leukemia = test system: HL-60(TB) leukemia
MOLT-4 leukemia = test system: MOLT-4 leukemia
ACHN renal = test system: ACHN renal
SK-MEL-28 melanoma = test system: SK-MEL-28 melanoma
RPMI-8226 leukemia = test system: RPMI-8226 leukemia
SK-MEL-5 melanoma = test system: SK-MEL-5 melanoma
SW-620 colon = test system: SW-620 colon
SNB-75 CNS = test system: SNB-75 CNS
PC-3 prostate = test system: PC-3 prostate
SN12C renal = test system: SN12C renal
A549 NSCLC = test system: A549 NSCLC
NCI-H23 lung = test system: NCI-H23 lung
HCC-2998 colon = test system: HCC-2998 colon
CAKI-1 renal = test system: CAKI-1 renal
NCI-H522 lung = test system: NCI-H522 lung
M14 melanoma = test system: M14 melanoma
MDA-MB-231 breast = test system: MDA-MB-231 breast
SNB-19 CNS = test system: SNB-19 CNS
HCT-116 colon = test system: HCT-116 colon
U251 CNS = test system: U251 CNS
OVCAR-5 ovarian = test system: OVCAR-5 ovarian
HOP-62 NSCLC = test system: HOP-62 NSCLC
HOP-92 NSCLC = test system: HOP-92 NSCLC
OVCAR-8 ovarian = test system: OVCAR-8 ovarian
SK-MEL-2 melanoma = test system: SK-MEL-2 melanoma
SK-OV-3 ovarian = test system: SK-OV-3 ovarian
COLO 205 colon = test system: COLO 205 colon
SF-268 CNS = test system: SF-268 CNS
MCF7 breast = test system: MCF7 breast
EKVX NSCLC = test system: EKVX NSCLC
IGROV1 ovarian = test system: IGROV1 ovarian
SF-295 CNS = test system: SF-295 CNS
SF-539 CNS = test system: SF-539 CNS
RXF 393 renal = test system: RXF 393 renal
K-562 leukemia = test system: K-562 leukemia
A498 renal = test system: A498 renal
HCT-15 colon = test system: HCT-15 colon
MALME-3M melanoma = test system: MALME-3M melanoma
NCI/ADR-RES ovarian = test system: NCI/ADR-RES ovarian

## CC/C(=C\c1ccc(N(C)C)cc1)c1ccncc1
LOX IMVI melanoma
  GI50: 4.05 µM
  TGI: > 100 µM
MDA-MB-435
  GI50: 1.68 µM
  TGI: 7.51 µM
OVCAR-3 ovarian
  GI50: 4.13 µM
  TGI: 29.7 µM
NCI-H460 lung
  GI50: 3.79 µM
  TGI: > 100 µM
NCI-H226 lung
  GI50: 14.1 µM
  TGI: > 100 µM
KM12 colon
  GI50: 3.84 µM
  TGI: > 100 µM
T-47D breast
  GI50: 4.16 µM
  TGI: > 100 µM
BT-549 breast
  GI50: 4.38 µM
  TGI: 23.5 µM
UACC-257 melanoma
  GI50: 11.6 µM
  TGI: > 100 µM
TK-10 renal
  GI50: 12.9 µM
  TGI: > 100 µM
HS 578T breast
  GI50: 4.13 µM
  TGI: 67.2 µM
UACC-62 melanoma
  GI50: 5.04 µM
  TGI: > 100 µM
SR leukemia
  GI50: 3.24 µM
  TGI: 30.1 µM
CCRF-CEM leukemia
  GI50: 8.13 µM
  TGI: > 100 µM
DU-145 prostate
  GI50: 9.47 µM
  TGI: > 100 µM
OVCAR-4 ovarian
  GI50: 8.67 µM
  TGI: > 100 µM
HT29 colon
  GI50: 4.43 µM
  TGI: > 100 µM
UO-31 renal
  GI50: 6.57 µM
  TGI: > 100 µM
786-0 renal
  GI50: 6.31 µM
  TGI: 46.4 µM
HL-60(TB) leukemia
  GI50: 4.06 µM
  TGI: 29.3 µM
MOLT-4 leukemia
  GI50: 5.09 µM
  TGI: > 100 µM
ACHN renal
  GI50: 5.87 µM
  TGI: > 100 µM
SK-MEL-28 melanoma
  GI50: > 100 µM
  TGI: > 100 µM
RPMI-8226 leukemia
  GI50: 5.13 µM
  TGI: 55.2 µM
SK-MEL-5 melanoma
  GI50: 3.43 µM
  TGI: 16.4 µM
SW-620 colon
  GI50: 4.04 µM
  TGI: > 100 µM
SNB-75 CNS
  GI50: 6.88 µM
  TGI: 47.7 µM
PC-3 prostate
  GI50: 10.3 µM
  TGI: > 100 µM
SN12C renal
  GI50: 5.96 µM
  TGI: > 100 µM
A549 NSCLC
  GI50: 5.5 µM
  TGI: > 100 µM
NCI-H23 lung
  GI50: 4.96 µM
  TGI: > 100 µM
HCC-2998 colon
  GI50: 6.58 µM
  TGI: > 100 µM
CAKI-1 renal
  GI50: 3.42 µM
  TGI: > 100 µM
NCI-H522 lung
  GI50: 5.05 µM
  TGI: > 100 µM
M14 melanoma
  GI50: 4.37 µM
  TGI: 54.6 µM
MDA-MB-231 breast
  GI50: 6.53 µM
  TGI: 80.1 µM
SNB-19 CNS
  GI50: 9.09 µM
  TGI: > 100 µM
HCT-116 colon
  GI50: 3.89 µM
  TGI: > 100 µM
U251 CNS
  GI50: 4.82 µM
  TGI: 48.7 µM
OVCAR-5 ovarian
  GI50: 33 µM
  TGI: > 100 µM
HOP-62 NSCLC
  GI50: 4.33 µM
  TGI: 33.7 µM
HOP-92 NSCLC
  GI50: 1.89 µM
  TGI: 9.94 µM
OVCAR-8 ovarian
  GI50: 6.16 µM
  TGI: > 100 µM
SK-MEL-2 melanoma
  GI50: 8.51 µM
  TGI: > 100 µM
SK-OV-3 ovarian
  GI50: 7.87 µM
  TGI: 53.3 µM
COLO 205 colon
  GI50: 3.94 µM
  TGI: 21.1 µM
SF-268 CNS
  GI50: 11.2 µM
  TGI: > 100 µM
MCF7 breast
  GI50: 9.31 µM
  TGI: > 100 µM
EKVX NSCLC
  GI50: 3.29 µM
  TGI: > 100 µM
IGROV1 ovarian
  GI50: 5.47 µM
  TGI: > 100 µM
SF-295 CNS
  GI50: 3.44 µM
  TGI: 21.1 µM
SF-539 CNS
  GI50: 7.35 µM
  TGI: 74.6 µM
RXF 393 renal
  GI50: 4.25 µM
  TGI: 20.8 µM
K-562 leukemia
  GI50: 3.78 µM
  TGI: > 100 µM
A498 renal
  GI50: 4.35 µM
  TGI: > 100 µM
HCT-15 colon
  GI50: 2.82 µM
  TGI: > 100 µM
MALME-3M melanoma
  GI50: 4.52 µM
  TGI: > 100 µM
NCI/ADR-RES ovarian
  GI50: 2.38 µM
  TGI: 6.09 µM
